Laboratory results from patent US20260234157A1, “COMPOUND AND METHOD FOR TARGETED DEGRADATION OF ANDROGEN RECEPTOR” (Gan & Lee Pharmaceuticals Co., Ltd., priority 2023, published 2026).
Substitutions are numbered along the chain they refer to. Like-named read-outs stand apart in the source and are kept apart here.

How the values were obtained:
Assay type in all cases: cell-based
[1] = molecular target: T1, AR protein (Homo sapiens, UniProt P10275); assay: Degradation of AR protein in VCaP cells (Western blot); conditions: 8 hours
T1 construct: degradation activity of the compounds disclosed in the present disclosure on AR protein in VCaP cells; host or cells: VCaP
T1 sequence (P10275 1-920): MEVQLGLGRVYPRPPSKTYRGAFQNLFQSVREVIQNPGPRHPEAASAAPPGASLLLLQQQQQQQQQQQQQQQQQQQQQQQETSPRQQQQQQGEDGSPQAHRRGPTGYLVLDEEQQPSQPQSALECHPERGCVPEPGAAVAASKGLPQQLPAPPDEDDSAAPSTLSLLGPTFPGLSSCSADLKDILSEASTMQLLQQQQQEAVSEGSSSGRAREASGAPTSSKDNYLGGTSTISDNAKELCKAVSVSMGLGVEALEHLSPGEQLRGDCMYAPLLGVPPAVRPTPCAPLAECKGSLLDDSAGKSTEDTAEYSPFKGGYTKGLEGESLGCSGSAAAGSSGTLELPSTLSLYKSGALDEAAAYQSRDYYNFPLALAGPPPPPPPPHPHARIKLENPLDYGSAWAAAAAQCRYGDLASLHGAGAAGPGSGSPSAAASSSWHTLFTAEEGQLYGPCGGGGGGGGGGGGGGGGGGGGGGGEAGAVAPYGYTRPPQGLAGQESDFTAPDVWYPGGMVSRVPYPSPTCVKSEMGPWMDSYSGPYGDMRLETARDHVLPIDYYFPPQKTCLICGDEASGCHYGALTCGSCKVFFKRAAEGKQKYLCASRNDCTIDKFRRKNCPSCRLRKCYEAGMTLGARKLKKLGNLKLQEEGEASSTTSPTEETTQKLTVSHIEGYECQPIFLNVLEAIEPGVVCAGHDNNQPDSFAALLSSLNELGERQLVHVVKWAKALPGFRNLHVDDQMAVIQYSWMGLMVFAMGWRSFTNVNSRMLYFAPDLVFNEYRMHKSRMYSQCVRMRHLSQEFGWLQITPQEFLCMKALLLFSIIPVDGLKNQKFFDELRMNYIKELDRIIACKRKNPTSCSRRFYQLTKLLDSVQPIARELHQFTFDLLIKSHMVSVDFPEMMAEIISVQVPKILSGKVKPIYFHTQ
Procedure, shortened: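 Western blot readout: AR band grayscale normalised to GAPDH, used to derive degradation rate. Lysates came from VCaP cells exposed to compound for 8 h, with solvent controls run in parallel.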

[2] = tested on: LNCaP FGC cells; assay: Inhibition of proliferation of LNCaP cells (WST-8); conditions: Homo sapiens, LNCaP, 96 h
Description: The cells were cultured in a cell culture incubator with 5% CO2 at 37° C. overnight. […] On the sixth day, 96 well plates were taken out, and 20 μL of WST-8 (Beytime, C0040) reagent was added to each well.

[3] = tested on: VCaP cells; assay: Inhibition of proliferation of VCaP cells (WST-8); conditions: Homo sapiens, read-out: IC50 for inhibiting the proliferation of VCaP cells
Description: The inhibitory activity of the compounds disclosed in the present disclosure on the proliferation of VCaP cells
On the first day of the experiment, […] were inoculated in 96 well plates at a density of 15000 cells per well using DMEM medium containing 10% fetal bovine serum, with 100 μL of cell suspension per well. The cells were cultured in a cell culture incubator with 5% CO2 at 37° C. overnight. […] On the ninth day, 96 well plates were taken out, and 20 μL of WST-8 (Beytime, C0040) reagent was added to each well.

[4] = molecular target: T2, AR protein (Homo sapiens, UniProt P10275, T878A); assay: Degradation of AR protein in LNCaP cells (Western blot); conditions: for inhibition at 0.01 µM: read-out: Degradation rates of the AR protein in LNCaP cells, 10 nM (%); for inhibition at 0.1 µM: read-out: Degradation rates of the AR protein in LNCaP cells, 100 nM (%)
T2 construct: degradation activity of the compounds disclosed in the present disclosure on AR protein in LNCaP cells; host or cells: LNCaP FGC
T2 sequence (P10275 1-920 T878A): T1 sequence (P10275 1-920) with T878A
Procedure, shortened: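 Percent AR degradation was derived from GAPDH-normalised Western blot band intensities (infrared detection) in LNCaP lysates.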

[5] = LNCaP FGC cells, 96 hours, WST-8 absorbance at 450 nm, read-out: IC50 for inhibiting the proliferation of LNCaP cells
[6] = VCaP cells, 168 hours, WST-8 absorbance at 450 nm
[7] = read-out: IC50 for inhibiting the proliferation of LNCaP cells, LNCaP FGC cells, 96 hours, WST-8 absorbance at 450 nm
[8] = LNCaP cells, compound 10 nM, 8 hours, Western blot grayscale, GAPDH internal reference
[9] = LNCaP cells, compound 100 nM, 8 hours, Western blot grayscale, GAPDH internal reference

Row | Structure (SMILES) | IC50 [2, 5] [nM] | IC50 [3, 6] [nM] | IC50 [2, 7] [nM] | IC50 ([3]; VCaP, 168 h) [nM] | also measured
1 | N#Cc1ccc(O[C@H]2CC[C@H](NC(=O)c3ccc(N4CCC(C(=O)N5CCC(N6CCC7(CC6)COc6c7ccc7c6CN(C6CCC(=O)NC6=O)C7=O)CC5)CC4)nn3)CC2)cc1Cl (stereo partly shown) [Compound 161] | 440 | 3 | – | – | Degradation rate of the AR protein in VCaP cells, 10 nM (%) ([1]; compound at 10 nM): 47%; Degradation rate of the AR protein in VCaP cells, 100 nM (%) ([1]; compound at 100 nM): 84%
2 | N#Cc1ccc(O[C@H]2CC[C@H](NC(=O)c3ccc(N4CC(N5CCC6(CC5)Oc5cc7c(cc5CC6(F)F)C(=O)N(C5CCC(=O)NC5=O)C7=O)C4)nn3)CC2)cc1Cl (stereo partly shown) [Compound 37] | – | – | 4530 | 3230 | inhibition at 0.01 µM ([4]; LNCaP, 8 h): 5%; inhibition at 0.1 µM ([4]; LNCaP, 8 h): 29%
3 | CC1(C)C(=O)N(c2ccc(C#N)c(C(F)(F)F)c2)C(=S)N1c1ccc(C(=O)N2CCC3(CCC(N4CCC5(CC4)COc4cc6c(cc4C5)C(=O)N(C4CCC(=O)NC4=O)C6=O)CC3)C2)c(F)c1 (stereo not shown) [Compound 130] | – | – | 2660 | 3610 | –
4 | N#Cc1ccc(O[C@H]2CC[C@H](NC(=O)c3ccc(N4CCN(C5CCC6(CCc7cc8c(cc7O6)C(=O)N(C6CCC(=O)NC6=O)C8=O)CC5)CC4)nn3)CC2)cc1Cl (stereo partly shown) [Compound 29] | 930 | 1200 | – | – | inhibition at 0.01 µM [4, 8]: 35%; inhibition at 0.1 µM [4, 9]: 63%
5 | CC1(C)C(=O)N(c2ccc(C#N)c(C(F)(F)F)c2)C(=S)N1c1ccc(C(=O)N2CCC(CN3CCC4(CCc5cc6c(cc5O4)CN(C4CCC(=O)NC4=O)C6=O)CC3)CC2)c(F)c1 (stereo not shown) [Compound 85] | – | – | 5340 | 7400 | –
6 | N#Cc1ccc(O[C@H]2CC[C@H](NC(=O)c3ccc(N4CC[C@@H](CN5CCC6(CCc7cc8c(cc7O6)C(=O)N(C6CCC(=O)NC6=O)C8=O)CC5)C4)nn3)CC2)cc1Cl (stereo partly shown) [Compound 21] | 560 | 380 | – | – | –
7 | COC1(CN2CCC3(CCc4cc5c(cc4O3)C(=O)N(C3CCC(=O)NC3=O)C5)CC2)CCN(c2ccc(C(=O)N[C@H]3CC[C@H](Oc4ccc(C#N)c(Cl)c4)CC3)nn2)CC1 (stereo partly shown) [Compound 131] | 4550 | 2270 | – | – | –
8 | COC1(CN2CCC3(CC2)Cc2cc4c(cc2O3)C(=O)N(C2CCC(=O)NC2=O)C4=O)CCN(c2ccc(C(=O)N[C@H]3CC[C@H](Oc4ccc(C#N)c(Cl)c4)CC3)nn2)CC1 (stereo partly shown) [Compound 199] | 1110 | 570 | – | – | –
9 | N#Cc1ccc(O[C@H]2CC[C@H](NC(=O)c3ccc(N4CCC5(CC4)COc4cc6c(cc4O5)C(=O)N(C4CCC(=O)NC4=O)C6=O)nn3)CC2)cc1Cl (stereo partly shown) [Compound 75] | 6050 | 7400 | – | – | inhibition at 0.01 µM [4, 8]: 41%; inhibition at 0.1 µM [4, 9]: 36%
10 | N#Cc1ccc(O[C@H]2CC[C@H](NC(=O)c3ccc(N4CC5(CCC(N6CCC(N7CCC8(CC7)COc7c8ccc8c7CN(C7CCC(=O)NC7=O)C8=O)CC6)CC5)C4)nn3)CC2)cc1Cl (stereo partly shown) [Compound 175] | – | – | 8070 | 10 | –
11 | CC1(CN2CC3(CCc4cc5c(cc4O3)CN(C3CCC(=O)NC3=O)C5=O)C2)CCN(c2ccc(C(=O)N[C@H]3CC[C@H](Oc4ccc(C#N)c(Cl)c4)CC3)nn2)CC1 (stereo partly shown) [Compound 80] | 730 | 2830 | – | – | –
12 | N#Cc1ccc(O[C@H]2CC[C@H](NC(=O)c3ccc(N4CCC(F)(CN5CCC6(CCc7ccc8c(c7O6)C(=O)N(C6CCC(=O)NC6=O)C8)CC5)CC4)nn3)CC2)cc1Cl (stereo partly shown) [Compound 163] | 13600 | 650 | – | – | –
13 | CC1(C)C(=O)N(c2ccc(C#N)c(C(F)(F)F)c2)C(=S)N1c1ccc(C(=O)N2CC(N3CCC4(CC3)COc3cc5c(cc3C4)C(=O)N(C3CCC(=O)NC3=O)C5=O)C2)c(F)c1 (stereo not shown) [Compound 112] | – | – | 8180 | 5120 | –
14 | COC1(CN2CC3(CCc4cc5c(cc4O3)CN(C3CCC(=O)NC3=O)C5=O)C2)CCN(C(=O)c2ccc(N3C(=S)N(c4ccc(C#N)c(C(F)(F)F)c4)C(=O)C3(C)C)cc2F)CC1 (stereo not shown) [Compound 89] | – | – | 3240 | 350 | –
15 | CC1(C)C(=O)N(c2ccc(C#N)c(C(F)(F)F)c2)C(=S)N1c1ccc(C(=O)N2CC3(CCC(N4CCC5(CC4)COc4cc6c(cc4C5)C(=O)N(C4CCC(=O)NC4=O)C6=O)CC3)C2)c(F)c1 (stereo not shown) [Compound 86] | – | – | 4530 | 2490 | –
16 | N#Cc1ccc(O[C@H]2CC[C@H](NC(=O)c3ccc(N4CCC(N5CCC(C(=O)N6CCC7(CC6)COc6c7ccc7c6CN(C6CCC(=O)NC6=O)C7=O)CC5)CC4)nn3)CC2)cc1Cl (stereo partly shown) [Compound 160] | 59900 | 2 | – | – | inhibition at 0.01 µM [4, 8]: 67%; inhibition at 0.1 µM [4, 9]: 76%
17 | CC1(C)C(=O)N(c2ccc(C#N)c(C(F)(F)F)c2)C(=S)N1c1ccc(C(=O)N2CCC(CN3CC4(CCc5cc6c(cc5O4)CN(C4CCC(=O)NC4=O)C6=O)C3)CC2)c(F)c1 (stereo not shown) [Compound 124] | 7910 | 2960 | – | – | –
18 | N#Cc1ccc(O[C@H]2CC[C@H](NC(=O)c3ccc(N4CCC5(CC4)CC(N4CCC6(CC4)COc4c6ccc6c4C(=O)N(C4CCC(=O)NC4=O)C6=O)C5)nn3)CC2)cc1Cl (stereo partly shown) [Compound 143] | 350 | 20 | – | – | –
19 | N#Cc1ccc(O[C@H]2CC[C@H](NC(=O)c3ccc(N4CCC(N5CCC6(CC5)CC(F)(F)c5cc7c(cc5O6)C(=O)N(C5CCC(=O)NC5=O)C7=O)CC4)nn3)CC2)cc1Cl (stereo partly shown) [Compound 38] | – | – | 2400 | 5290 | inhibition at 0.01 µM ([4]; LNCaP, 8 h): 29%; inhibition at 0.1 µM ([4]; LNCaP, 8 h): 48%
20 | COC1(CN2CCC3(CC2)COc2c(ccc4c2C(=O)N(C2CCC(=O)NC2=O)C4)C3)CCN(c2ccc(C(=O)NC3CCC(Oc4ccc(C#N)c(Cl)c4)CC3)nn2)CC1 (stereo not shown) [Compound 186] | 850 | 20 | – | – | –
